Data as given in patent publication US20100099756A1, “USES OF INCENSOLE, INCENSOLE ACETATE AND DERIVATIVES THEREOF” (YISSUM RESEARCH DEVELOPMENT COMPANY OF THE HEBREW …, priority 2006, published 2010).

Columns and labels:
closed head injury = assay: Tissue edema formation (tissue water content) after CHI; type: in vivo, mice; details: left (ipsilateral) hemisphere, 24 h after injury; P=0.15 vs vehicle
TNF-α and IL-1β mRNA = assay: IL-1β and TNFα mRNA expression after CHI (real-time PCR); type: in vivo, mice; details: 3 hours after CHI, 50 mg/kg, relative to β-actin, P<0.05
Method: IL-1β and TNFα mRNA levels were quantified 3 hours post-injury by real time polymarerase chain reaction. β-actin was used as endogenous control. *p<0.05 vs. vehicle, as determined by student's t-tests.
The mRNA levels of these cytokines were quantified at 3 hours after CHI using real-time PCR.

cancer cells = assay: Cell proliferation test (MTT); type: cell-based; details: three days
Method: In each MTT assay every concentration of the cytotoxic substance was tested in five replicates in microplate wells. Assays with every cell line were carried out in two to three repeated experiments. The inhibitory effect of various compounds was calculated as percentage inhibition in comparison with the values obtained in untreated wells to which vehicle (ethanol 0.5%) was added.
Aliquots (200 μL) of suspensions of cancer cells were dispensed into wells of 96-well tissue culture plates at densities of 0.02×10^6 cells/well. Various concentrations of IA were introduced into the wells, and their efficacy was tested three days after initiation of the cultures, using the 3-(4,5-dimethylthiazol-2-yl)-2,5-diphenyltetrazolium bromide (MTT) assay. The principle of this assay is that cells which survive following exposure to various compounds can reduce MTT to a dark -colored formazan, while dead cells are incapable of doing so. In each MTT assay every concentration of the cytotoxic substance was tested in five replicates in microplate wells. Assays with every cell line were carried out in two to three repeated experiments. The inhibitory effect of various compounds was calculated as percentage inhibition in comparison with the values obtained in untreated wells to which vehicle (ethanol 0.5%) was added.

mouse TRPV3-YFP = biological target: T1, mouse TRPV3-YFP (Mus musculus, UniProt Q8K424); assay: Calcium imaging of HEK293 cells expressing mouse TRPV3-YFP; type: cell-based
T1 construct: expressed in transfected cells
T1 sequence (Q8K424 1-791): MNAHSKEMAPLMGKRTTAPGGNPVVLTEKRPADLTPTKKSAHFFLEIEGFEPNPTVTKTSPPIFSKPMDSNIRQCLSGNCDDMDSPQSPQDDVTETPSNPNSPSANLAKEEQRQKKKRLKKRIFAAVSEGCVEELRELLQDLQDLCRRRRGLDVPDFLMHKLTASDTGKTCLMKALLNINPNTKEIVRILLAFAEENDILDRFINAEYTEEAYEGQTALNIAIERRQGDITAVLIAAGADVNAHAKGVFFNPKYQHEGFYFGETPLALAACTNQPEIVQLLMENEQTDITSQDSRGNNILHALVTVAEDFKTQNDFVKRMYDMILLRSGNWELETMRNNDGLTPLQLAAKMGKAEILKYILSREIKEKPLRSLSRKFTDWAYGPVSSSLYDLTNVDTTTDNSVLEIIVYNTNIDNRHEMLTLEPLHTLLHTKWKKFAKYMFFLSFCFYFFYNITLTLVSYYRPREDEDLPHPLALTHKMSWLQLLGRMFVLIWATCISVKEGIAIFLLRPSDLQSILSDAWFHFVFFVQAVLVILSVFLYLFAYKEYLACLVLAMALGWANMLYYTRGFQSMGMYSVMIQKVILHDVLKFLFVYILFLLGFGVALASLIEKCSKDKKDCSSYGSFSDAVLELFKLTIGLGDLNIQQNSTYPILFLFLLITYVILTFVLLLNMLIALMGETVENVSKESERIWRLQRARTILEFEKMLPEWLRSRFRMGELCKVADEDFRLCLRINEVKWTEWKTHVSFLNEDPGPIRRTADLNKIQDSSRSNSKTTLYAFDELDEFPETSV
Method: All error bars indicate SEM; p values in all subfigures but c represent analysis with one-way ANOVA Bonferroni's post hoc.
TRPV3-YFP [O'dell, D. K., Rimmerman, N., Pickens, S. R. & Walker J. M. Fatty acyl amides of endogenous tetrahydroisoquinolines are active at the recombinant human TRPV1 receptor. […] Med. Chem. 15, 6164-6169 (2007)], TRPV4 and mock-transfected cell lines were cultured in DMEM 1× with L-glutamine (Mediatech, Inc. Herndon, Va.), containing 1% penicillin-streptomycin (Invitrogen, Carlsbad, Calif.) and 10% foetal bovine serum.
Calcium imaging of HEK 293 cells. TRPV1, TRPV3, and TRPV4 expressing HEK293 cells were plated 24-48 h before imaging in 96 well plates, loaded with 3 μM Fura-2 AM and imaged as previously described [O'dell, D. K., Rimmerman, N., Pickens, S. R. & Walker J. M. Fatty acyl amides of endogenous tetrahydroisoquinolines are active at the recombinant human TRPV1 receptor. […] Med. Chem. 15, 6164-6169 (2007)].
For single cell calcium imaging, HEK293-rat TRPV2 and HEK293-mouse TRPV3-YFP expressing cells were plated on collagen-coated glass cover slips. Cells were loaded for 60 min with 3 μM Fura-2 AM.
Data analysis of calcium imaging data. Analysis of calcium imaging data was done using a non-linear regression curve fit (Graphpad 4 Prism, San Diego, Calif.). t tests and one way ANOVA were calculated using SPSS (Chicago, Ill.). In the keratinocyte experiments, drug-induced response for each cell was taken as the maximal post-drug measurements over time minus the average of the last 5 pre-drug measurements. Averaged drug responses over 30 randomly selected cells per coverslip were analyzed with two-tailed unpaired t tests.

For `CC(=O)OC1CC/C(C)=C/CC/C(C)=C/CC2(C(C)C)CCC1(C)O2` (stereo not drawn) [IA, incensole acetate], the tissue water content (closed head injury) was 81.47±0.35%, the “IL-1β mRNA expression” value (TNF-α and IL-1β mRNA) was “significantly inhibited mRNA expression” and the “TNF-α mRNA expression” value (TNF-α and IL-1β mRNA) was “significantly inhibited mRNA expression”. The “proliferation of cells, other cell lines (FIG. 11B)” value (cancer cells) was “no effect”, the “proliferation of cells, several cell lines (FIG. 11A)” value (cancer cells; hematopoetic cells) was “inhibited the proliferation of cells” and the “calcium influx vs vehicle” value (mouse TRPV3-YFP; IA 100 μM, 2-APB positive control) was “significantly increased calcium influx”. The “calcium influx Hill slope” value (mouse TRPV3-YFP; calcium in the extracellular media) was 2.2, the EC50 (mouse TRPV3-YFP; calcium in the extracellular media, read-out: calcium influx EC50) was 16 µM and the “calcium increase with calcium removed from the extracellular medium” value (mouse TRPV3-YFP; no extracellular calcium) was “significantly reduced”.
